Results taken from patent publication US20230150970A1, “AMINOPYRIMIDINE DERIVATIVES AND THEIR USE AS ARYL HYDROCARBON RECEPTOR MODULATORS” (DONG-A ST CO., LTD., priority 2020, published 2023).
Where two headings read alike, the source gives them in different places.

Legend:
[1] = target: T1, AhR (Mus musculus, UniProt P30561); experiment: In Vitro Assay 2: XRE-luciferase reporter assay, antagonism in mouse cell line (Hepa1c1c7); assay type: cell-based; conditions: 6 hours, read-out: Assay 2: AhR-Luc Mouse Antagonism (IC50)
T1 sequence (P30561 1-848): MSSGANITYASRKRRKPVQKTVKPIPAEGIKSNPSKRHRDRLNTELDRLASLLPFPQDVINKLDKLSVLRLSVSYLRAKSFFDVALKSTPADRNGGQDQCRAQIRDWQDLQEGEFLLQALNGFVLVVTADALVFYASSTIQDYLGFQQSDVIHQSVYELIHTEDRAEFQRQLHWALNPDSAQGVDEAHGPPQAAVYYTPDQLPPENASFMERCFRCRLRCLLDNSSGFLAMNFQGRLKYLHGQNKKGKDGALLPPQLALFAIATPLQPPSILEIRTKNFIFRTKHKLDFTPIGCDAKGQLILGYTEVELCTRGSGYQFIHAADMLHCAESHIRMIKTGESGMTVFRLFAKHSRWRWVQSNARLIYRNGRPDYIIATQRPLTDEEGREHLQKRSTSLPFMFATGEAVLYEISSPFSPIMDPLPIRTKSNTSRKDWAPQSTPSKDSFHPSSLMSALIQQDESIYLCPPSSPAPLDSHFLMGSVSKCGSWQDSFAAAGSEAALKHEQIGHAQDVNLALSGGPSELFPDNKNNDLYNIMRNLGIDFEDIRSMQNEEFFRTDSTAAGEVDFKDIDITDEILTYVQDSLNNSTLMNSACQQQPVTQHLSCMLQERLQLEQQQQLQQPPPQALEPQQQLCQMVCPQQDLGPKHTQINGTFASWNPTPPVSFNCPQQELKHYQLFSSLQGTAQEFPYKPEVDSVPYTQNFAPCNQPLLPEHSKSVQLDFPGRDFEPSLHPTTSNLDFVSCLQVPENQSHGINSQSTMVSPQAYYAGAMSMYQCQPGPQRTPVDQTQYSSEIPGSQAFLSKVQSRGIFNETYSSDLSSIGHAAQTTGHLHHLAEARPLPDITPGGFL
Experimental: In Vitro Assay 2: Antagonism in Mouse Cell Line
Hepa1c1c7 (murine liver cancer cell line) cells co-transfected with XRE-Luc and Nano-Luc plasmids were plated in complete medium and incubated overnight at 37° C. in a CO2 incubator. Following incubation, cells were treated with AhR activating ligands such as kynurenic acid, kynurenine (#) with or without test compounds for 6 hours.

[2] = target: T2, AhR (Homo sapiens, UniProt P35869); experiment: In Vitro Assay 1: XRE-luciferase reporter assay, antagonism in human cell line (HepG2)
T2 sequence (P35869 11-848): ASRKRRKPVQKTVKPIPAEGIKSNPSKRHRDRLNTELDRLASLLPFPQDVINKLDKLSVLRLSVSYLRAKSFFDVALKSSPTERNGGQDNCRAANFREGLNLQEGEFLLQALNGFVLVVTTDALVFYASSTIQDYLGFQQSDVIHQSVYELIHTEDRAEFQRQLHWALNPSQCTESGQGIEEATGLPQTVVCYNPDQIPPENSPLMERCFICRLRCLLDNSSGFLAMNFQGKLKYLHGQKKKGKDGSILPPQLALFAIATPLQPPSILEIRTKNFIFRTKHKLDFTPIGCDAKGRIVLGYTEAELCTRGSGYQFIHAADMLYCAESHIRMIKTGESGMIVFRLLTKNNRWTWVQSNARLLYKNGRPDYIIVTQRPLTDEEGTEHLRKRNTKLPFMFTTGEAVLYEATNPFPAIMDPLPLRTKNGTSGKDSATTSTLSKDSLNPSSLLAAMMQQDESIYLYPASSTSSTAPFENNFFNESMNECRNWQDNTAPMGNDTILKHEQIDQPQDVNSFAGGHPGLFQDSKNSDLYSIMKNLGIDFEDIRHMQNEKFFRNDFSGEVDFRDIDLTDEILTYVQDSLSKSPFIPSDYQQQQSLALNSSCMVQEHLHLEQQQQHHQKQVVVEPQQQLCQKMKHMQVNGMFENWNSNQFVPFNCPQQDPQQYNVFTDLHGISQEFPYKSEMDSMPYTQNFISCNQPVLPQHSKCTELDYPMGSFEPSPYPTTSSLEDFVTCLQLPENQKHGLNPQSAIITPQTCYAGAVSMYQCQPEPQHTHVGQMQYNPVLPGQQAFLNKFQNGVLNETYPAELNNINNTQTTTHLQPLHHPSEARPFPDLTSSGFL

[3] = target: T2, AhR; experiment: In Vitro Assay 3: XRE-luciferase reporter assay, agonism in human cell line (HepG2); assay type: cell-based; design: endogenous in cells; host or cells: HepG2; conditions: HepG2, tryptophan free medium, 6 hours, no agonist, read-out: Assay 3: AhR-Luc Human Agonism (EC50)
Experimental: In Vitro Assay 3: Agonism in Human Cell Line
HepG2 (human hepatoma cell line) cells co-transfected with XRE-Luc and Nano-Luc plasmids were plated in tryptophan free medium containing 1% of dialyzed fetal bovine serum and incubated overnight at 37° C. in a CO2 incubator. After 24 hours, cells were treated for 6 hours with test compounds or not. […] As a positive control, cells were incubated with TCDD.

[4] = target: T2, AhR; experiment: In Vitro Assay 4: endogenous AhR activity assay (CYP1A1 and CYP1B1 mRNA, qRT-PCR, HepG2 cells)
[5] = values marked #: AhR activating ligand kynurenine
[6] = Assay 1: AhR-Luc Human Antagonism (IC50, nM), values marked *: kynurenine 50 μM, 6 hours
[7] = HepG2, read-out: CYP1A1 (% Inhibition)
[8] = HepG2, read-out: CYP1B1 (% Inhibition)
[9] = Assay 1: AhR-Luc Human Antagonism (IC50, nM), unmarked values: kynurenine 200 μM, 6 hours
[10] = unmarked values: AhR activating ligand kynurenic acid

Row | Compound | IC50 [1, 5] | IC50 [2, 6] | EC50 ([3]; number of the cell) | EC50 ([3]; class in brackets of the cell) | IC50 ([2]; read-out: Assay 1: AhR-Luc Human Antagonism (IC50), unmarked values: kynurenine 200 μM, 6 hours) | inhibition at 0.123 µM [4, 7] | inhibition at 0.123 µM [4, 8] | IC50 [2, 9] | IC50 [1, 10]
1 | CC[C@H](CO)Nc1cc(-c2ccc(Cl)cc2)nc(-c2cccnc2)n1 [Example 1, (R)-2-((6-(4-chlorophenyl)-2-(pyridin-3-yl)pyrimidin-4-yl)amino)butan-1-ol] | 100 to 1000 nM | 10 to 100 nM | 12.6 nM |  |  | 60% | 92% |  | 
2 | CN1CCN(C2CCN(c3cc(-c4ccc(Cl)cc4)nc(-c4cccnc4)n3)CC2)CC1 [Example 92, 4-(4-chlorophenyl)-6-(4-(4-methylpiperazin-1-yl)piperidin-1-yl)-2-(pyridin-3-yl)pyrimidine] | 100 to 1000 nM | 10 to 100 nM | > 30000 nM | > 10000 nM |  |  |  |  | 
3 | O=C1CN(c2cc(-c3ccc(Cl)cc3)nc(-c3cccnc3)n2)CCN1 [Example 94, 4-(6-(4-chlorophenyl)-2-(pyridin-3-yl)pyrimidin-4-yl)piperazin-2-one] | 100 to 1000 nM | 10 to 100 nM | > 30000 nM | > 10000 nM |  | 63.1% | 92.1% |  | 
4 | CN1CCN(c2cc(-c3ccc(Cl)cc3)nc(-c3cccnc3)n2)CC1 [Example 105, 4-(4-chlorophenyl)-6-(4-methylpiperazin-1-yl)-2-(pyridin-3-yl)pyrimidine] | 100 to 1000 nM | < 10 nM | > 30000 nM | > 10000 nM |  | 59.2% | 88.4% |  | 
5 | CS(=O)(=O)N1CCN(c2cc(-c3ccc(Cl)cc3)nc(-c3cccnc3)n2)CC1 [Example 107, 4-(4-chlorophenyl)-6-(4-(methylsulfonyl)piperazin-1-yl)-2-(pyridin-3-yl)pyrimidine] | 10 to 100 nM |  | > 30000 nM | > 10000 nM |  |  |  | < 10 nM | 
6 | O[C@H]1CCN(c2cc(-c3ccc(Cl)cc3)nc(-c3cccnc3)n2)C1 [Example 137, (S)-1-(6-(4-chlorophenyl)-2-(pyridin-3-yl)pyrimidin-4-yl)pyrrolidin-3-ol] |  |  | > 30000 nM | > 10000 nM |  | 91.6% | 97.7% | < 10 nM | < 10 nM
7 | CC(=O)NC1CCN(c2cc(-c3ccc(Cl)cc3)nc(-c3cccnc3)n2)C1 (centres unmarked) [Example 143, N-(1-(6-(4-chlorophenyl)-2-(pyridin-3-yl)pyrimidin-4-yl)pyrrolidin-3-yl)acetamide] | 100 to 1000 nM | < 10 nM | > 30000 nM | > 10000 nM |  |  |  |  | 
8 | OCC1CCN(c2cc(-c3ccc(C(F)(F)F)cc3)nc(-c3cccnc3)n2)CC1 [Example 226, (1-(2-(pyridin-3-yl)-6-(4-(trifluoromethyl)phenyl)pyrimidin-4-yl)piperidin-4-yl)methanol] | 10 to 100 nM |  | > 30000 nM | > 10000 nM |  | 108% | 101% | < 10 nM | 
9 | CC(=O)N1CCCN(c2cc(-c3ccc(Cl)cc3)nc(-c3cccnc3)n2)C1 [Example 232, 1-(3-(6-(4-chlorophenyl)-2-(pyridin-3-yl)pyrimidin-4-yl)tetrahydropyrimidin-1 (2H)-yl)ethan-1-one] | > 1000 nM | < 10 nM |  |  |  | 100% | 99.8% |  | 
10 | CC(=O)N[C@@H]1CN(c2cc(-c3ccc(Cl)cc3)nc(-c3cccnc3)n2)C[C@@H]1O [Example 243, N-((3R,4S)-1-(6-(4-chlorophenyl)-2-(pyridin-3-yl)pyrimidin-4-yl)-4-hydroxypyrrolidin-3-yl)acetamide] | 10 to 100 nM |  |  |  |  | 89.7% |  | < 10 nM | 
11 | OC[C@H]1CN(c2cc(-c3ccc(C(F)(F)F)cc3)nc(-c3cccnc3)n2)C[C@@H]1O [Example 258, (3R,4R)-4-(hydroxymethyl)-1-(2-(pyridin-3-yl)-6-(4-(trifluoromethyl)phenyl)pyrimidin-4-yl)pyrrolidin-3-ol] |  |  |  |  |  | 101% |  | < 10 nM | < 10 nM

Continued, in another order:

Row | IC50 [1, 5] | IC50 [2, 6] | EC50 ([3]; number of the cell) | EC50 ([3]; class in brackets of the cell) | IC50 ([2]; read-out: Assay 1: AhR-Luc Human Antagonism (IC50), unmarked values: kynurenine 200 μM, 6 hours) | Compound | inhibition at 0.123 µM [4, 7] | inhibition at 0.123 µM [4, 8] | IC50 [2, 9] | IC50 [1, 10]
12 | 10 to 100 nM | < 10 nM | > 30000 nM | > 10000 nM |  | CC(=O)N1CCC(CNc2cc(-c3ccc(Cl)cc3)nc(-c3cccnc3)n2)CC1 [Example 154, 1-(4-(((6-(4-chlorophenyl)-2-(pyridin-3-yl)pyrimidin-4-yl)amino)methyl)piperidin-1-yl)ethan-1-one] |  |  |  | 
13 | 100 to 1000 nM | < 10 nM | > 30000 nM | > 10000 nM |  | O[C@H]1CC[C@@H](Nc2cc(-c3ccc(Cl)cc3)nc(-c3cccnc3)n2)C1 [Example 162, (1S,3R)-3-((6-(4-chlorophenyl)-2-(pyridin-3-yl)pyrimidin-4-yl)amino)cyclopentan-1-ol] |  |  |  | 
14 | 100 to 1000 nM | < 10 nM | 40.1 nM |  |  | OCC1CN(c2cc(-c3ccc(Cl)cc3)nc(-c3cccnc3)n2)CC1O (centres unmarked) [Example 236, 1-(6-(4-chlorophenyl)-2-(pyridin-3-yl)pyrimidin-4-yl)-4-(hydroxymethyl)pyrrolidin-3-ol] |  |  |  | 
15 |  |  | > 30000 nM | > 10000 nM |  | OC[C@@H]1CCN(c2cc(-c3ccc(Cl)cc3)nc(-c3cccnc3)n2)C[C@H]1F [Example 282, ((3S,4S)-1-(6-(4-chlorophenyl)-2-(pyridin-3-yl)pyrimidin-4-yl)-3-fluoropiperidin-4-yl)methanol] |  |  | < 10 nM | 100 to 1000 nM
16 |  |  | > 30000 nM | > 10000 nM |  | O[C@H]1CN(c2cc(-c3ccc(C(F)(F)F)cc3)nc(-c3cccnc3)n2)C[C@@H]1O [Example 283, (3S,4S)-1-(2-(pyridin-3-yl)-6-(4-(trifluoromethyl)phenyl)pyrimidin-4-yl)pyrrolidine-3,4-diol] |  |  | < 10 nM | 10 to 100 nM
17 | 10 to 100 nM |  | > 30000 nM | > 10000 nM | < 10 nM | (3R,4S)-1-(6-(4-chlorophenyl)-2-(pyridin-3-yl)pyrimidin-4-yl)pyrrolidine-3,4-diol [Example 231] |  |  |  | 
